Measurements from patent publication US20040092401A1, “Novel alpha-sulfin and alpha-sulfonamino amide derivatives” (priority 2000, published 2004).
Like-named read-outs stand apart in the source and are kept apart here.

Key:
Plasmopara viticola = settings: read-out: inhibit fungal infestation
Method: 5 week old grape seedlings cv. Gutedel are treated with the formulated test compound in a spray chamber. One day after application grape plants are inoculated by spraying a sporangia suspension (4×104 sporangia/ml) on the lower leaf side of the test plants. After an incubation period of 6 days at +21° C. and 95% r. h. in a greenhouse the disease incidence is assessed.

[1] = test system: Phytophthora (late blight); test: whole plant or invertebrate; format: in vivo; settings: in Solanum lycopersicum, read-out: inhibit fungal infestation
[2] = test system: Phytophthora (late blight); test: whole plant or invertebrate; format: in vivo; settings: in Solanum tuberosum, read-out: inhibit fungal infestation

SMILES	melting point	inhibition at 200 ppm (Plasmopara viticola)	inhibition at 200 ppm [1]	inhibition at 200 ppm [2]
CCS(=O)(=O)N[C@H](C(=O)NCCc1ccc(OCc2ccccc2)cc1)C(C)C	133 to 134 °C	–	–	–
CCS(=O)(=O)N[C@H](C(=O)NCCc1ccc(OCC#Cc2ccc(Cl)cc2)cc1)C(C)C [Compound A1.1, (S)-2-Ethanesulfonylamino-N-(2-{4-[3-(4-chloro-phenyl)-propargyloxvy]-phenyl}-ethyl)-3-methyl-butyramide]	–	≥ 80%	≥ 80%	≥ 80%
